Reference: US10183040B2, “Method for regulation of lipid metabolism” (PROFEAT BIOTECHNOLOGY CO., LTD., priority 2014, dated 2019)

Experiment: Serum triacylglycerol, cholesterol, HDL and LDL assays of diabetes mice, Table 4 groups (FIG. 4A-4D)
Type: in vivo, db/db mice (C57BLKS/J-leprdb/leprdb)
Settings: 4 mg/kg/day, versus phosphate solution control
Method: (§1) FIG. 4A is a bar chart of the triacylglycerol assay of diabetes mice in accordance with the present invention, wherein the mice of control group are administered with phosphate buffer; the mice of treatment group are administered with 4 mg/kg/day composition A1; the mice of B01 group are administered with commercial 4 mg/kg/day ferrous glycine, and the mice of C01 group are administered with 4 mg/kg/day ferrous sulfate.
as §1, with “4B” for “4A”, “cholesterol” for “triacylglycerol”, “sulfate. […]” for “sulfate.”
The mice were daily and orally administered with the composition A1 at dosage of […] for 12 weeks. The body weights of the mice were measured every 3 days, and the serum biochemical values of the mice were measured every 4 weeks after orally administering with the composition A1. Triacylglycerol and cholesterol of the serum biochemical values were determined using a Biochem-Immuno Fully Autoanalyzer (Brea, Calif., USA) or a Chemistry Analyzer (Hitachi, Ltd., Japan). […]

NCC(=O)[O-].NCC(=O)[O-].[Fe+2] [commercial ferrous glycine, ferrous glycine]
triacylglycerol: effectively reduced

ferrous sulfate [commercial ferrous sulfate]
triacylglycerol: effectively reduced
